In brackets after ≈: the same amount, converted by molar mass. Read-outs that look alike come from different tables or passages of the source.
What was measured:
[1] = system: Methicillin Resistant Staphylococcus aureus strain USA 300, NRS384; experiment: Minimum inhibitory concentration, broth micro-dilution (CLSI), S. aureus; assay type: cell-based; conditions: Staphylococcus aureus, MRSA / NRS 384 / USA300, 22 h, 35° C., 22 hours
Outline: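 CLSI broth microdilution in cation-adjusted Mueller Hinton Broth with 0.002% Tween-80; inoculum final OD600 0.0005, 22 hours at 35° C. Ten 2-fold dilutions starting at 4 μg/mL (protocol 2) or 0.5 μg/mL (protocol 3).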

[2] = system: Escherichia coli ATCC 25922; experiment: Minimum inhibitory concentration, broth micro-dilution (CLSI), E. coli; assay type: cell-based; conditions: Escherichia coli, ATCC25922, 22 h, 35° C., 22 hours
[3] = system: Escherichia coli MC4100 harboring the IMP4213 (E. coli IMP); experiment: microbe, parasite or virus in culture; assay type: cell-based; conditions: Escherichia coli, 22 h, read-out: MIC (μg/mL) E. coli IMP, E. coli MC4100 IMP4213, increased outer-membrane permeability; 35° C., 22 hours
Outline: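 Top conc 4 μg/mL (protocol 2) or 0.5 μg/mL (protocol 3), 2-fold series, 10 points. Final OD600 0.0005; 22 h, 35° C. IMP4213 = permeable outer membrane.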

[4] = molecular target: T1, SpsB (Staphylococcus aureus signal peptidase) (Staphylococcus aureus, UniProt P0A070); experiment: cell-based; assay type: biochemical; conditions: SpsB IC50, whole-cell S. aureus (USA300 background, overexpressing SpsB) as SpsB source; fluorogenic peptide substrate, kinetic read 30 min
T1 construct: This assay uses a suspension of Staphylococcus aureus cells as a source of SpsB instead of recombinant SpsB protein; endogenous in cells; host or cells: S. aureus, USA300 background, overexpressing SpsB (whole-cell suspension from frozen pellets)
T1 sequence (P0A070 whole entry): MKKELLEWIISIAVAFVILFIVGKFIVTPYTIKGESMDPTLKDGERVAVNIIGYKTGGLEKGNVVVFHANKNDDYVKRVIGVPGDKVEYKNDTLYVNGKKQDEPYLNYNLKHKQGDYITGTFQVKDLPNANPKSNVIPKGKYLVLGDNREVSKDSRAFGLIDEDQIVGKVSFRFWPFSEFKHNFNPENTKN
Outline: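 Cleavage of an internally quenched (Dabcyl)βAla-KPAKAAE(Edans) peptide, added as 20 μM solution mixed 1:1 with cells, was followed for 30 min at 340/490 nm. SpsB came from a suspension of SpsB-overexpressing USA300 S. aureus in Tween-80-containing PBS buffer. Slopes plotted against 3-fold compound dilutions gave IC50.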

[5] = MRSA USA 300 NRS384, read-out: MIC (μg/mL) S. aureus
[6] = E. coli ATCC 25922, read-out: MIC (μg/mL) E. coli
[7] = read-out: MIC (μg/mL) S. aureus, MRSA USA 300 NRS384
[8] = read-out: MIC (μg/mL) E. coli, E. coli ATCC 25922

Cc1cc(C#CC(C)C)ccc1C(=O)N[C@@H](CCN)C(=O)N(C)[C@@H]1C(=O)N[C@@H](C)C(=O)N[C@H](C(=O)NCC#N)Cc2ccc(OCCN)c(c2)-c2cc1ccc2OCCN [Compound 309]
MIC [1, 5]: 0.19 µg/mL (≈ 0.231 µM)
MIC [2, 6]: 1.1 µg/mL (≈ 1.34 µM)
MIC [3]: 0.02 µg/mL (≈ 0.0243 µM)
IC50 [4]: 1000 pM

Cc1cc(C#CC2CCCCC2)ccc1C(=O)N[C@@H](CCN)C(=O)N(C)[C@@H]1C(=O)N[C@@H](C)C(=O)N[C@H](C(=O)NCC#N)Cc2ccc(OCCN)c(c2)-c2cc1ccc2OCCN [Compound 310]
MIC [1, 5]: 0.047 µg/mL (≈ 0.0545 µM)
MIC [2, 6]: 0.13 µg/mL (≈ 0.151 µM)
MIC [3]: 0.0098 µg/mL (≈ 0.0114 µM)
IC50 [4]: 990 pM

C[C@@H]1NC(=O)[C@@H](N(C)C(=O)[C@H](CCN)NC(=O)c2ccc(C#CC3CCCCC3)cc2C(F)F)c2ccc(OCCN)c(c2)-c2cc(ccc2OCCN)C[C@@H](C(=O)NCC#N)NC1=O [Compound 311]
MIC [1, 7]: 0.047 µg/mL (≈ 0.0523 µM)
MIC [2, 8]: 0.25 µg/mL (≈ 0.278 µM)
MIC [3]: 0.012 µg/mL (≈ 0.0134 µM)
IC50 [4]: 640 pM

CCCCCCCc1cc(C)c(C(=O)N[C@@H](CCN)C(=O)N(C)[C@@H]2C(=O)N[C@@H](C)C(=O)N[C@H](C(=O)NCC#N)Cc3ccc(OCCN)c(c3)-c3cc2ccc3OCCN)cn1 [Compound 313]
MIC [1, 5]: 0.031 µg/mL (≈ 0.0363 µM)
MIC [2, 6]: 0.5 µg/mL (≈ 0.585 µM)
MIC [3]: 0.0078 µg/mL (≈ 0.00912 µM)
IC50 [4]: 680 pM

CCCCCCCCCCNCCC(=O)N(C)[C@@H]1C(=O)N[C@@H](C)C(=O)N[C@H](C(=O)NCC#N)Cc2ccc(O)c(c2)-c2cc1ccc2OCCN [Compound 316]
MIC [1, 5]: 0.13 µg/mL (≈ 0.184 µM)
MIC [2, 6]: > 64 µg/mL
MIC [3]: 2 µg/mL (≈ 2.83 µM)
IC50 [4]: 840 pM

CCCCCCCCCCNCCC(=O)N(C)[C@@H]1C(=O)N[C@@H](C)C(=O)N[C@H](C(=O)NCC#N)Cc2ccc(OCCN)c(c2)-c2cc1ccc2O [Compound 317]
MIC [1, 5]: 0.094 µg/mL (≈ 0.133 µM)
MIC [2, 6]: 64 µg/mL (≈ 90.7 µM)
MIC [3]: 1 µg/mL (≈ 1.42 µM)
IC50 [4]: 870 pM

C[C@@H]1NC(=O)[C@@H](N(C)C(=O)[C@H](CCCCN)NC(=O)c2ccc(-c3ccc(Cl)cc3)cc2)c2ccc(OCCN)c(c2)-c2cc(ccc2O)C[C@@H](C(=O)N[C@@H](C)C#N)NC1=O [Compound 319]
MIC [1, 7]: 2 µg/mL (≈ 2.35 µM)
MIC [2, 8]: > 64 µg/mL
MIC [3]: 0.75 µg/mL (≈ 0.881 µM)
IC50 [4]: 6300 pM

CCCCCCCCCCNCCC(=O)N[C@@H](CCCCN)C(=O)N(C)[C@@H]1C(=O)N[C@@H](C)C(=O)N[C@H](C(=O)NCC#N)Cc2ccc(O)c(c2)-c2cc1ccc2OCCN [Compound 320]
MIC [1, 5]: 0.13 µg/mL (≈ 0.156 µM)
MIC [2, 6]: > 64 µg/mL
MIC [3]: 2 µg/mL (≈ 2.4 µM)
IC50 [4]: 970 pM

CCCCc1ccc(-c2ccc(C(=O)N[C@@H](CN)C(=O)N(C)[C@@H]3C(=O)N[C@@H](C)C(=O)N[C@H](C(=O)NCC#N)Cc4ccc(OCCO)c(c4)-c4cc3ccc4OCCN)cc2)cc1 [Compound 321]
MIC [1, 7]: 0.38 µg/mL (≈ 0.441 µM)
MIC [2, 8]: 1 µg/mL (≈ 1.16 µM)
MIC [3]: 0.016 µg/mL (≈ 0.0186 µM)
IC50 [4]: 1800 pM

CCCCc1ccc(-c2ccc(C(=O)N[C@@H](CN)C(=O)N(C)[C@@H]3C(=O)N[C@@H](C)C(=O)N[C@H](C(=O)NCC#N)Cc4ccc(OCCC)c(c4)-c4cc3ccc4OCCN)cc2)cc1 [Compound 322]
MIC [1, 5]: 1.5 µg/mL (≈ 1.75 µM)
MIC [2, 6]: 4 µg/mL (≈ 4.66 µM)
MIC [3]: 0.13 µg/mL (≈ 0.151 µM)
IC50 [4]: 8400 pM

CCCCCCCCCCCCCC(=O)N[C@@H](CCN)C(=O)N(C)[C@@H]1C(=O)N[C@@H](C)C(=O)N[C@H](C(=O)NCC#N)Cc2ccc(OCCC)c(c2)-c2cc1ccc2OCCN [Compound 323]
MIC [1, 5]: 0.75 µg/mL (≈ 0.885 µM)
MIC [2, 6]: 1.5 µg/mL (≈ 1.77 µM)
MIC [3]: 0.094 µg/mL (≈ 0.111 µM)
IC50 [4]: 2800 pM

CCCCCCCCCCCCCC(=O)N[C@@H](CCN)C(=O)N(C)[C@@H]1C(=O)N[C@@H](C)C(=O)N[C@H](C(=O)NCC#N)Cc2ccc(OCC)c(c2)-c2cc1ccc2OCCN [Compound 324]
MIC [1, 5]: 0.25 µg/mL (≈ 0.3 µM)
MIC [2, 6]: 1 µg/mL (≈ 1.2 µM)
MIC [3]: 0.031 µg/mL (≈ 0.0372 µM)
IC50 [4]: 820 pM

CCCCCCCCCCCCCC(=O)N[C@@H](CCN)C(=O)N(C)[C@@H]1C(=O)N[C@@H](C)C(=O)N[C@H](C(=O)NCC#N)Cc2ccc(OCCO)c(c2)-c2cc1ccc2OCCN [Compound 325]
MIC [1, 5]: 0.13 µg/mL (≈ 0.153 µM)
MIC [2, 6]: 0.5 µg/mL (≈ 0.589 µM)
MIC [3]: < 0.0039 µg/mL
IC50 [4]: 770 pM

CCCCCCCCCCCCCC(=O)N[C@@H](CCN)C(=O)N(C)[C@@H]1C(=O)N[C@@H](C)C(=O)N[C@H](C(=O)NCC#N)Cc2ccc(OC)c(c2)-c2cc1ccc2OCCN [Compound 326]
MIC [1, 5]: 0.19 µg/mL (≈ 0.232 µM)
MIC [2, 6]: 1 µg/mL (≈ 1.22 µM)
MIC [3]: 0.016 µg/mL (≈ 0.0195 µM)
IC50 [4]: 980 pM

CCCCCCCCCCCCCC(=O)N[C@@H](CCN)C(=O)N(C)[C@@H]1C(=O)N[C@@H](C)C(=O)N[C@H](C(=O)NCC#N)Cc2ccc(OCCN)c(c2)-c2cc1ccc2OCCO [Compound 329]
MIC [1, 5]: 0.063 µg/mL (≈ 0.0742 µM)
MIC [2, 6]: 0.5 µg/mL (≈ 0.589 µM)
MIC [3]: 0.0078 µg/mL (≈ 0.00919 µM)
IC50 [4]: 710 pM

CCCCCCCCCCCCCC(=O)N[C@@H](CCN)C(=O)N(C)[C@@H]1C(=O)N[C@@H](C)C(=O)N[C@H](C(=O)NCC#N)Cc2ccc(OCCN)c(c2)-c2cc1ccc2OCC [Compound 330]
MIC [1, 5]: 0.25 µg/mL (≈ 0.3 µM)
MIC [2, 6]: 1 µg/mL (≈ 1.2 µM)
MIC [3]: 0.063 µg/mL (≈ 0.0756 µM)
IC50 [4]: 1000 pM

CCCCc1ccc(-c2ccc(C(=O)N[C@@H](CCCCN)C(=O)N(C)[C@@H]3C(=O)N[C@@H](C)C(=O)N[C@H](C(=O)NCC#N)Cc4ccc(OCCN)c(c4)-c4cc3ccc4OCCN)cc2)cc1 [Compound 331]
MIC [1, 7]: 0.063 µg/mL (≈ 0.0698 µM)
MIC [2, 8]: 0.69 µg/mL (≈ 0.765 µM)
MIC [3]: 0.023 µg/mL (≈ 0.0255 µM)
IC50 [4]: 340 pM

CCCCc1ccc(-c2ccc(C(=O)N[C@@H](CCCCN)C(=O)N(C)[C@@H]3C(=O)N[C@@H](C)C(=O)N[C@H](C(=O)N[C@@H](C)C#N)Cc4ccc(OCCN)c(c4)-c4cc3ccc4OCCN)cc2)cc1 [Compound 332]
MIC [1, 5]: 0.13 µg/mL (≈ 0.142 µM)
MIC [2, 6]: 3 µg/mL (≈ 3.27 µM)
MIC [3]: < 0.063 µg/mL
IC50 [4]: 560 pM

CCCCCCCCCCCCCC(=O)N[C@@H](CCCCN)C(=O)N(C)[C@@H]1C(=O)N[C@@H](C)C(=O)N[C@H](C(=O)N[C@@H](C)C#N)Cc2ccc(OCCN)c(c2)-c2cc1ccc2OCCO [Compound 333]
MIC [1, 5]: < 0.063 µg/mL
MIC [2, 6]: 1 µg/mL (≈ 1.12 µM)
MIC [3]: < 0.063 µg/mL
IC50 [4]: 800 pM

CCCCCCCCCCCCCC(=O)N[C@@H](CCCCN)C(=O)N(C)[C@@H]1C(=O)N[C@@H](C)C(=O)N[C@H](C(=O)NCC#N)Cc2ccc(OCCN)c(c2)-c2cc1ccc2OCCN [Compound 334]
MIC [1, 5]: < 0.063 µg/mL
MIC [2, 6]: 0.5 µg/mL (≈ 0.571 µM)
MIC [3]: < 0.063 µg/mL
IC50 [4]: 1300 pM

CCCCCCCCc1ccc(C(=O)N[C@@H](CCCN)C(=O)N(C)[C@@H]2C(=O)N[C@@H](C)C(=O)N[C@H](C(=O)NCC#N)Cc3ccc(OCCN)c(c3)-c3cc2ccc3OCCN)cc1 [Compound 335]
MIC [1, 5]: 0.031 µg/mL (≈ 0.0357 µM)
MIC [2, 6]: 0.25 µg/mL (≈ 0.288 µM)
MIC [3]: 0.016 µg/mL (≈ 0.0184 µM)
IC50 [4]: 560 pM

CCCCCCCCCCCCCC(=O)N[C@@H](CCCN)C(=O)N(C)[C@@H]1C(=O)N[C@@H](C)C(=O)N[C@H](C(=O)NCC#N)Cc2ccc(OCCN)c(c2)-c2cc1ccc2OCCN [Compound 336]
MIC [1, 5]: 0.063 µg/mL (≈ 0.0731 µM)
MIC [2, 6]: 0.25 µg/mL (≈ 0.29 µM)
MIC [3]: 0.023 µg/mL (≈ 0.0267 µM)
IC50 [4]: < 500 pM

CCCCCCCCCCCCCC(=O)N[C@@H](CCN)C(=O)N(C)[C@@H]1C(=O)N[C@@H](C)C(=O)N[C@H](C(=O)NCC#N)Cc2ccc(OCCN)c(c2)-c2cc1ccc2OCCN [Compound 337]
MIC [1, 5]: 0.031 µg/mL (≈ 0.0366 µM)
MIC [2, 6]: 0.25 µg/mL (≈ 0.295 µM)
MIC [3]: 0.016 µg/mL (≈ 0.0189 µM)
IC50 [4]: < 500 pM

CCCCc1ccc(-c2ccc(C(=O)N[C@@H](CCN)C(=O)N(C)[C@@H]3C(=O)N[C@@H](C)C(=O)N[C@H](C(=O)NCC#N)Cc4ccc(OCCN)c(c4)-c4cc3ccc4OCCN)cc2)cc1 [Compound 338]
MIC [1, 7]: 0.063 µg/mL (≈ 0.0721 µM)
MIC [2, 8]: 0.19 µg/mL (≈ 0.217 µM)
MIC [3]: 0.023 µg/mL (≈ 0.0263 µM)
IC50 [4]: < 500 pM
